{
  "source": "ChEMBL document CHEMBL1134574",
  "about": "“Synthesis and characterization of non-steroidal ligands for the glucocorticoid receptor: selective quinoline derivatives with prednisolone-equivalent functional activity” (J Med Chem, 2001)",
  "key": {"Androgen receptor": {"molecular_target": "T1, Androgen receptor (Homo sapiens, UniProt P10275)", "T1 sequence (P10275 whole entry)": "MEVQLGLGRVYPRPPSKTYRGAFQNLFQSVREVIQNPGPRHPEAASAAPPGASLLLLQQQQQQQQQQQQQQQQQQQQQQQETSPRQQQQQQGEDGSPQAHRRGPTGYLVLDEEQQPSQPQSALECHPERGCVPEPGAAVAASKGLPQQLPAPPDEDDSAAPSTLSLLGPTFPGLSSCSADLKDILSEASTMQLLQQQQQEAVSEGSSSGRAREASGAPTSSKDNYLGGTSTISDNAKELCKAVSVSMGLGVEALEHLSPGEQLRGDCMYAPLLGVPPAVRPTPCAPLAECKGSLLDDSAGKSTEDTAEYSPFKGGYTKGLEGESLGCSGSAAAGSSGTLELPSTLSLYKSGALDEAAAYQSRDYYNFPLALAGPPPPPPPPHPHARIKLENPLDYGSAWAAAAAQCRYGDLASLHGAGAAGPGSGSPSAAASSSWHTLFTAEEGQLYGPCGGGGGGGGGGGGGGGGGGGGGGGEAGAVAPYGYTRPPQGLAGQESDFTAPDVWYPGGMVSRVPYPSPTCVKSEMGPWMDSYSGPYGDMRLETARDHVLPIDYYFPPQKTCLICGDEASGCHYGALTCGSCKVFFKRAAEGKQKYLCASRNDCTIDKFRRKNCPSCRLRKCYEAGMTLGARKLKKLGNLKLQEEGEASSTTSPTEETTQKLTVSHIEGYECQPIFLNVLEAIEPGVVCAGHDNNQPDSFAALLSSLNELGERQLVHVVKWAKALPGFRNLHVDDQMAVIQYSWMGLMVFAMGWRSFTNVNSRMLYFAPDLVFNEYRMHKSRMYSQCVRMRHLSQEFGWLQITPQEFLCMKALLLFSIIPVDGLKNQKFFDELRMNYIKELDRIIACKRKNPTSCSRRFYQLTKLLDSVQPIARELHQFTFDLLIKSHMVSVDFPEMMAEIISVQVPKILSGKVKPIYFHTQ", "experiment": "Binding affinity for androgen receptor"}, "Glucocorticoid receptor [1]": {"molecular_target": "T2, Glucocorticoid receptor (Homo sapiens, UniProt P04150)", "T2 sequence (P04150 whole entry)": "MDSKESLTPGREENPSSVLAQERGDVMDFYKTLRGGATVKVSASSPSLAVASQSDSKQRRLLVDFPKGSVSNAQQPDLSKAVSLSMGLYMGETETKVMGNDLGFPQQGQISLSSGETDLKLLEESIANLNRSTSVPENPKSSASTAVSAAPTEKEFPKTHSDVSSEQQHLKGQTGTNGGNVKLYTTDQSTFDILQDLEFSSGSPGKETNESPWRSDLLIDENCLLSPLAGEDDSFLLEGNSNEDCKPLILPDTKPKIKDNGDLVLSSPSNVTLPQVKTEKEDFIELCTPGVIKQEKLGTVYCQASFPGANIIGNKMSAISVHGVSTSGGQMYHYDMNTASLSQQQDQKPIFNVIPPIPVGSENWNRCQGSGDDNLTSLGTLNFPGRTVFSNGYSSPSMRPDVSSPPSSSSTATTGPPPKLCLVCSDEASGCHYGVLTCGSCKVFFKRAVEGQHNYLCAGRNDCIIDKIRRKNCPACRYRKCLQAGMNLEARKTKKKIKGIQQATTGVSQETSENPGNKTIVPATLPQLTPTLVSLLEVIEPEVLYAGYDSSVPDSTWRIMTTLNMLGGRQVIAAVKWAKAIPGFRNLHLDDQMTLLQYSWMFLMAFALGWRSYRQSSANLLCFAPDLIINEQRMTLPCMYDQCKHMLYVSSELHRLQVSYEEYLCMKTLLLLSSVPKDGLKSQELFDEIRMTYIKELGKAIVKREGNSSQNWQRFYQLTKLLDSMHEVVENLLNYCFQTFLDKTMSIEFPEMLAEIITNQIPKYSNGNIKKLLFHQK", "experiment": "Glucocorticoid-induced aromatase activity in human skin fibroblasts", "format": "functional"}, "Glucocorticoid receptor [2]": {"molecular_target": "T2, Glucocorticoid receptor", "experiment": "Binding affinity for glucocorticoid receptor"}, "Estrogen receptor": {"molecular_target": "Estrogen receptor (Homo sapiens, UniProt Q92731+P03372)", "experiment": "Binding affinity for estrogen receptor", "format": "protein assay"}, "Glucocorticoid receptor [3]": {"molecular_target": "T2, Glucocorticoid receptor", "experiment": "Transcriptional activation in CV-1 cells expressing glucocorticoid receptor", "format": "functional, cell-based"}, "Glucocorticoid receptor [4]": {"molecular_target": "T2, Glucocorticoid receptor", "experiment": "Repression activity of GR ligand with interleukin-6 receptor in native cell assay using Dexamethasone was determined as maximal potency", "format": "functional"}, "[5]": {"molecular_target": "T3, Glucocorticoid receptor (Rattus norvegicus) (UniProt P06536)", "T3 sequence (whole entry)": "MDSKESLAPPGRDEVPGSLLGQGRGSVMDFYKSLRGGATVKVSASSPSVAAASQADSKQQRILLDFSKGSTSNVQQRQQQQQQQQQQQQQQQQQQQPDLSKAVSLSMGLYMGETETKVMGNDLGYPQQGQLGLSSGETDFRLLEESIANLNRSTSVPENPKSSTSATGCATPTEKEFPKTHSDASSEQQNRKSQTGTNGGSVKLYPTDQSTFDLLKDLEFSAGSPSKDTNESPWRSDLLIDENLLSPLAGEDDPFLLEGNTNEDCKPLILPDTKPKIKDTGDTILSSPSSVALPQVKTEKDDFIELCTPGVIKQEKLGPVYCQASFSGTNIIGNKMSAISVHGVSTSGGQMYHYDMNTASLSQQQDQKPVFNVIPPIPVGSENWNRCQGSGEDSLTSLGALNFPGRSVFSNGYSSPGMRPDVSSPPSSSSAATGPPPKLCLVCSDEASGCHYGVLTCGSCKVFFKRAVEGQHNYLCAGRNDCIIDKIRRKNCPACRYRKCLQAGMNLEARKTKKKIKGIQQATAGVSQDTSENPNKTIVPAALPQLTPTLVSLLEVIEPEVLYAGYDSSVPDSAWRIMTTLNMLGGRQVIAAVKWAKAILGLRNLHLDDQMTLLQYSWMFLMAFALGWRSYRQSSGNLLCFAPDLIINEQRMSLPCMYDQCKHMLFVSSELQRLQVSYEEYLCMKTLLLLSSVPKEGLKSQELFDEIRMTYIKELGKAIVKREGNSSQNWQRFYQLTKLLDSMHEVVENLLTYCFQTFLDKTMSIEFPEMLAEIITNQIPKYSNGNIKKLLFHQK", "experiment": "Anti-asthmatic effect as eosinophil influx in rat lung model", "format": "functional"}},
  "data": [
    {"molecule": "COc1cccc2c1-c1ccc3c(c1C(c1cccc(OCSC)c1)O2)C(C)=CC(C)(C)N3", "note": "(configuration not stated)", "values": [
      {"measurement": "Ki", "setting": "Androgen receptor", "result": 3.12, "unit": "µM"},
      {"measurement": "IC50", "setting": "Glucocorticoid receptor [1]", "result": 140, "unit": "nM"},
      {"measurement": "Ki", "setting": "Glucocorticoid receptor [2]", "result": 4, "unit": "nM"},
      {"measurement": "Ki", "setting": "Estrogen receptor", "result": "> 1000", "unit": "nM"},
      {"measurement": "IC50", "setting": "Glucocorticoid receptor [3]", "result": 9, "unit": "nM"},
      {"measurement": "IC50", "setting": "Glucocorticoid receptor [4]", "result": 16, "unit": "nM"},
      {"measurement": "ED50", "setting": "[5]", "result": 2.8, "unit": "mg/kg"}
    ]}
  ]
}
